Columns and labels:
Type in all cases: cell-based, human
[1] = tested on: hyaluronan synthase (HAS3) gene expression; assay: HAS3 gene expression in tension-applied three-dimensional artificial skin (real-time PCR); details: artificial skin of the present invention; 10 μM ATRA solution on gauze on epidermis for 1 hour, then 5 hours culture (6 hours after addition)
Experimental: The artificial skin was such that, on the 6th day of culture, this was replaced with a medium for assay use (Dulbecco's Modified Eagle's Medium containing 1 μM hydrocortisone, 5 μg/mL insulin, and 10% fetal bovine serum). On the 8th day of culture, gauze that had been impregnated with 0.2% HPC solution or 10 μM ATRA solution was placed on the surface of the epidermis, and this was cultured for 1 hour in a 5% CO2 incubator at 37° C. After 1 hour, the gauze was removed, and this was further cultured for 5 hours in a 5% CO2 incubator at 37° C. Following culture of the artificial skin for 6 hours, the artificial skin was removed from the container in such fashion as to not cause the epidermal tissue to be delaminated therefrom, and a razor was used to cut this in half. After using […] from an RNeasy Plus Mini Kit (manufactured by Qiagen) to dissolve tissue by pulverizing with beads, phenol chloroform was used to remove protein therefrom, following which column purification was carried out as directed by the RNeasy Plus Mini Kit protocol to obtain total RNA.
SuperScript VILO Master Mix (manufactured by Invitrogen) was used as directed by the attached manual to carry out synthesis of cDNA from the purified total RNA. […]

[2] = tested on: elastin (ELN) gene expression; assay: Elastin gene expression in tension-applied three-dimensional artificial skin (real-time PCR); details: artificial skins prepared using means of the present invention; 10 ng/mL TGF-β in assay medium, 48 hours
Experimental: (§1) The artificial skin was such that, on the 6th day of culture, this was replaced with a medium for assay use (Dulbecco's Modified Eagle's Medium containing 1 μM hydrocortisone, 5 μg/mL insulin, and 10% fetal bovine serum). […] After using RNT solution from an RNeasy Plus Mini Kit (manufactured by Qiagen) to dissolve tissue by pulverizing with beads, phenol chloroform was used to remove protein therefrom, following which column purification was carried out as directed by the RNeasy Plus Mini Kit protocol to obtain total RNA.
(§2) SuperScript VILO Master Mix (manufactured by Invitrogen) was used as directed by the attached manual to carry out synthesis of cDNA from the purified total RNA. The synthesized cDNA was mixed with SYBR Premix Ex Taq (manufactured by Takara) and primer mix (a mixture of forward and reverse primers), 12.5 μL of reaction solution was prepared in each well of a 96-well plate for PCR use, and a QuantStudio 12K Flex (Applied Biosystems) was used to carry out real-time PCR. The real-time PCR reaction was such that 40 cycles comprising 95° C. for 30 seconds for initial denaturation, and 95° C. for 5 seconds and 60° C. for 31 seconds for the PCR reaction, were carried out. […]

[3] = tested on: collagen 1A1 (COL1A1) gene expression; assay: Collagen 1A1 gene expression in tension-applied three-dimensional artificial skin (real-time PCR); details: artificial skins prepared using means of the present invention; 10 ng/mL TGF-β in assay medium, 48 hours
Experimental: as §1, §2

Molecule | increase of HAS3 gene expression as compared with the situation when unstimulated [1] [×] | increase of elastin (ELN) gene expression as compared with the situation when unstimulated [2] [×] | increase of COL1A1 gene expression as compared with the situation when unstimulated [3] [×]
CC1=C(/C=C/C(C)=C/C=C/C(C)=C/C(=O)O)C(C)(C)CCC1 [ATRA] | ≥ 3 | – | –
TGF-β | – | ≥ 3 | ≥ 1.5
